{"source": "patent US20160084824A1", "about": "“DRUG DISCOVERY METHODS INVOLVING A PRECLNICAL, IN VITRO ISOLATED GASTROINTESTINAL EPITHELIAL STEM CELL-LIKE PROGENITOR CELL SYSTEM” (AlfaGene Bioscience, Inc., priority 2008, published 2016)", "key": {"[1]": {"tested_on": "IL-8 production by HIPEC cells", "assay": "IL-8 production by HIPECs, ELISA", "type": "cell-based, human", "settings": "for IL-8 production: 5-ASA 1-10 μg/ml in culture medium", "description": "Human gastrointestinal epithelial stem cell-like progenitor cells were isolated from a normal segment of the large intestine and a segment of the large intestine in a diseased state (such as a segment having ulcerative colitis). Epithelial monolayers were grown from these progenitor crypt cells on the appropriate BSME as described above. The effects of 5-ASA on spontaneous, LPS, or IFN-γ stimulated IL-8 production were assessed on HIPEC cells cultured in the presence or absence of either LPS or IFN-γ and 5-ASA (1-10 μg/ml). The level of IL-8 production was measured by ELISA."}, "[2]": {"tested_on": "malignant colonic adenocarcinoma cell line (HT29)", "assay": "Cellular toxicity of SN-38, MTT viability assay, HT29", "type": "cell-based, human", "settings": "HT29 cells; increasing amounts of SN-38", "description": "(§1) Briefly, HGISC-derived primary epithelial cell lines (A2J1 and SOJ2) and the malignant colonic adenocarcinoma cell line (HT29) were cultured, as described above in Examples 1A and 1B in medium containing different cytotoxic levels of the irinotecan metabolite 7-ethyl-10-hydroxy-20(S)-camptothecin (SN-38). […] Each cell culture was assessed for viability utilizing the MIT assay.\n(§2) Yellow MTT (3-(4,5-Dimethylthiazol-2-yl)-2,5-diphenyltetrazolium bromide, a tetrazole) is reduced to purple formazan in living cells. A solubilization solution (usually either dimethyl sulfoxide, an acidified ethanol solution, or a solution of the detergent sodium dodecyl sulfate in diluted hydrochloric acid) is added to dissolve the insoluble purple formazan product into a colored solution. The absorbance of this colored solution may be quantified by measuring at a certain wavelength (usually between 500 and 600 nm) using a spectrophotometer. The absorption maximum is dependent on the solvent employed. The MTT assay may be used to determine cytotoxicity of materials, since those materials that result in cell toxicity, and therefore metabolic dysfunction, yield decreased performance in the assay."}, "[3]": {"tested_on": "HGISC-derived primary epithelial cell line SOJ2", "assay": "Cellular toxicity of SN-38, MTT viability assay, SOJ2", "type": "cell-based, human", "settings": "SOJ2 cells; increasing amounts of SN-38", "description": "as §1, §2"}, "[4]": {"tested_on": "HGISC-derived primary epithelial cell line A2J1", "assay": "Cellular toxicity of SN-38, MTT viability assay, A2J1", "type": "cell-based, human", "settings": "A2J1 cells; increasing amounts of SN-38", "description": "as §1, §2"}, "[5]": {"tested_on": "HIPEC monolayer derived from small intestinal segment (A2J1)"}, "[6]": {"settings": "cited from earlier work"}}}
{"compound": "Nc1ccc(O)c(C(=O)O)c1", "note": "[5-ASA, 5-aminosalicyclic acid]", "values": [{"measurement": "IL-8 production", "setting": "[1]; IBS HIPECs", "result": "suppressed"}, {"measurement": "IL-8 production", "setting": "[1]; normal HIPECs", "result": "suppressed"}]}
{"compound": "CCc1c2c(nc3ccc(O)cc13)-c1cc3c(c(=O)n1C2)COC(=O)[C@]3(O)CC", "note": "[SN-38, 7-ethyl-10-hydroxy-20(S)-camptothecin]", "values": [{"measurement": "percent viability (MTT)", "setting": "[2]", "result": "unaffected"}, {"measurement": "percent viability (MTT)", "setting": "[3]", "result": "above 50%"}, {"measurement": "percent viability (MTT)", "setting": "[4]", "result": 0, "unit": "%"}]}
{"compound": "CC(C)NCC(O)COc1cccc2ccccc12", "note": "(stereo not drawn) [propranolol]", "values": [{"measurement": "permeability through small intestine (A2J1) compared with large intestine (5A)", "setting": "[5]", "result": "greater than through large intestine (5A)"}, {"measurement": "absorption", "setting": "[6]; administered in vivo", "result": "absorbed rapidly and completely"}, {"measurement": "bioavailability", "setting": "[6]; due to extensive first-pass metabolism", "result": "variable bioavailability"}]}
{"compound": "IFN-γ: cytokine produced predominantly by natural killer T cells as part of the innate immune response", "values": [{"measurement": "effect of stimulation on spontaneous IL-8 production", "setting": "[1]; HIPECs from normal controls and from patients with IBS", "result": "moderately enhanced"}]}
